“Also recorded” adds a separate entry of the source.
Columns and labels:
[1] = system: fish; conditions: cited from earlier work
[2] = system: curly-leaf pondweed; assay: Greenhouse concentration and exposure trial on curly-leaf pondweed; format: in vivo, Potamogeton crispus
Description: Error bars are +1 standard deviation (n=3).
Relative to control of invasive curly-leaf pondweed (or CLP), greenhouse studies of penoxsulam concentration and exposure requirements to achieve control of this species have documented that exposure periods of 3-7 days to 3-6 ppb penoxsulam can provide effective control. FIG. 10 presents results of a representative greenhouse trial of penoxsulam treatment of CLP. 13-cm diameter pots were filled with potting soil amended with Osmocote slow release fertilizer (14-14-14). Four apical CLP tips, harvested from a culture at the SRTC, were planted into each pot. A one-inch sand cap was placed over the potting soil and submersed into 54 gallon tubs to allow for grow-out. At 19 days after planting, the five tubs were treated with 0, 3, 6, 12, or 24 ppb penoxsulam. Three pots per treatment were pulled out and placed into a common grow-out tank at 1, 3, 7, and 14 days after treatment (DAT). Once the plants were allowed to grow out for 28 DAT the plants were harvested to determine aboveground dry weight (48 hours at 70° C.).

[3] = system: Eurasian watermilfoil; assay: 14C herbicide uptake study, shoot exposure; format: in vivo, Myriophyllum spicatum
Description: Plants were allowed to equilibrate overnight prior to treatment. […] Plants were separated into aboveground and belowground segments. […] After drying, plants were weighed and biomass recorded.

[4] = system: hydrilla; conditions: Hydrilla verticillata (hydrilla), in vivo
Procedure: Eurasian watermilfoil or hydrilla apical fragments were collected from infested field sites and grown in topsoil cultures in greenhouse conditions until needed for uptake experiments. For uptake studies, 15 cm apical fragments were planted in glass jars in topsoil with a sand cap. Plants were allowed to grow in 30 L tanks until rooted (˜14 days). Prior to experiments plants were removed from water and agarose gel (1.5%) was added to each sand cap surface in each jar to avoid root exposure. Three plants of each species were then placed in 4 L plastic containers containing 3 L of dechlorinated tap water. Plants were allowed to equilibrate overnight prior to treatment. During the study, plants were maintained at room temperature (25° C.) under grow lights. Six containers were treated for each experiment using the following aboveground (i.e., above gel layer and into shoot section) treatments of ^14C-radiolabeled herbicide: Fluridone—10 ppb, Penoxsulam—10 ppb, Triclopyr—1,000 ppb (10 ppb ^14C, remainder ‘cold’ material). All radiolabeled dosing of 10 ppb equated to 222,000 DPM of 14C herbicide. The selected total herbicide rates corresponded to typical use rates for these three aquatic herbicides. […] After drying, plants were weighed and biomass recorded. Plants were then burned using a biological sample oxidizer and radioactivity quantified using liquid scintillation spectroscopy (LSS). […]

[5] = system: Eurasian watermilfoil; assay: 14C-triclopyr uptake study, root exposure; format: in vivo, Myriophyllum spicatum; conditions: root exposure, 200,000 dpm 14C-triclopyr
Procedure: Threshold absorption is reached within 12-24 hours for below ground tissue and near-maximum translocation to aboveground tissue is reached within 48 hours.
Prior to the experiment, plants were transplanted into glass jars filled with water plus a diluted growth media (Hoagland's Solution) and an eicosane wax plug was added to separate aboveground and belowground portions of the plant. Plants were allowed to equilibrate in this solution for 5 days. The root zone of each plant was treated with 200,000 dpm of 14C-triclopyr. Plants were then moved into 3 gallon tanks with other treated plants. Treatments were replicated 3 times and harvested at 12, 24, 48, 96, 192 HAT. Upon harvest, plants were separated into aboveground and belowground portions, dried, weighed and biomass recorded.

[6] = shoot exposure, triclopyr 1,000 ppb, FIG. 1A, hydrilla and Eurasian milfoil not distinguished in text

For `CNC.O=C(O)COc1ccc(Cl)cc1Cl` [2,4-d dimethylamine salt], the “toxicity to creatures such as fish versus butoxyethyl ester of 2,4-d” value ([1]; US EPA 2,4-D Re-Registration Eligibility Decision 2005) is given as “substantially less toxic”.
For `CCN(CC)CC.O=C(O)COc1nc(Cl)c(Cl)cc1Cl` [Triclopyr triethylamine], the “toxicity to creatures such as fish versus butoxyethyl ester of triclopyr” value ([1]; in vivo) is given as “substantially less toxic”.
With `COc1cnc(OC)n2nc(NS(=O)(=O)c3c(OCC(F)F)cccc3C(F)(F)F)nc12` [penoxsulam, 2-(2,2-difluoroethoxy)-6-(trifluoromethyl)-N-(5,8-dimethoxy[1,2,4]triazolo-[1,5c]pyrimidin-2-yl)-benzenesulfonamide] the “exposure period providing effective control” value ([2]; 3-6 ppb penoxsulam) was 3 to 7 days and the “penoxsulam concentration providing effective control” value ([2]; exposure periods of 3-7 days) was 3-6 ppb.
With `O=C(O)COc1nc(Cl)c(Cl)cc1Cl` [triclopyr, 3,5,6-trichloro-2-pyridyloxyacetic acid] the “time to maximum uptake” value ([3]; Myriophyllum spicatum (Eurasian watermilfoil), in vivo) was at most 96 h, the “dose-corrected maximum uptake versus fluridone and penoxsulam” value ([3]; shoot exposure, Eurasian milfoil, FIG. 1B) was “Greater dose-corrected uptake; also recorded: much greater on a dose-corrected basis” and the “time to threshold levels in aboveground tissues” value [3, 6] was 48 to 96 h. The “time to threshold levels in belowground tissues” value [3, 6] was 6 to 12 h, the “time to maximum uptake” value [4] was at most 96 h and the “time to near-maximum translocation to aboveground tissue” value [5] was at most 48 h. The “time to threshold uptake in belowground tissue” value [5] was 12 to 24 h.

— patent US9137987B2, “Moderated release aquatic herbicide formulations” (SePro Corporation, priority 2011, dated 2015)
